# What was measured:
# [1] = system: Src family kinases (SFKs, including: Fyn, Yes, Yrk, Blk, Fgr, Hck, Lyn, and Frk subfamily members Frk/Rak and Iyk/Bsk); test: Inhibition of Src family kinases (statement, no method); format: biochemical; conditions: competes with ATP for the ATP-binding site in the kinase domain
# [2] = system: PC3 human prostate carcinoma xenografts; test: In vivo antitumor testing, PC3 human prostate carcinoma xenografts in nude mice; conditions: single agent compound 1, 10 mpk, orally, twice-a-day, 5-day-on, 2-day-off, 14 days
# Text: Tumors were propagated as subcutaneous transplants using tumor fragments obtained from donor mice.
# For treatment of early-stage tumors, the animals were again pooled before distribution to the various treatment and control groups. For treatment of animals with advanced-stage disease, tumors were allowed to grow to the pre-determined size window (tumors outside the range were excluded) and animals were evenly distributed to various treatment and control groups. Treatment of each animal was based on individual body weight. Treated animals were checked daily for treatment related toxicity/mortality. Each group of animals was weighed before the initiation of treatment (Wt1) and then again following the last treatment dose (Wt2). The difference in body weight (Wt2−Wt1) provides a measure of treatment-related toxicity. Tumor response was determined by measurement of tumors with a caliper twice a week, until the tumors reach a predetermined “target” size of 1 gm. Tumor weights (mg) were estimated from the formula: Tumor weight=(length×width2)÷2 Antitumor activity was evaluated at the maximum tolerated dose (MTD) which is defined as the dose level immediately below which excessive toxicity (i.e. more than one death) occurred. […] When death occurs, the day of death was recorded.
smiles,measurement,setting,value
"Cc1nc(Nc2ncc(C(=O)Nc3c(C)cccc3Cl)s2)cc(N2CCN(CCO)CC2)n1 [Compound 1, ′N-(2-Chloro-6-methylphenyl)-2-[[6-[4-(2-hydroxyethyl)-1-piperazinyl]-2-methyl-4-pyrimidinyl]amino]-5-thiazolecarboxamide]",inhibition of Src family kinases,[1],potently inhibits
same,growth delay (T-C),[2],4.5 days
same,tumor growth inhibition (% T/C),[2],58%

# From patent US7622472B2, “Combination of Src kinase inhibitors and chemotherapeutic agents for the treatment of proliferative diseases” (priority 2003, dated 2009)
